Source: ChEMBL document CHEMBL1201862, “PubChem BioAssay data set” (2004)
Activity calls are given as the source filed them.

Key:
[1] = P. falciparum Dd2 growth inhibitors, dose response, SYBR Green, cherry-picked samples (AID 1159567); type: functional, cell-based
[2] = test system: Vero; assay: cells; type: functional, cell-based; details: Chlorocebus sabaeus
[3] = microbe, parasite or virus in culture; type: functional; details: Mycobacterium tuberculosis
[4] = target: Large T antigen (Simian virus 40, UniProt P03070); type: functional, Betapolyomavirus macacae;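 further: Confirmatory-stage PubChem screen for compounds that inhibit SV40 T antigen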
[5] = test system: Vero; assay: cells; type: functional; details: Chlorocebus sabaeus
[6] = target: T1, Ubiquitin-conjugating enzyme E2 N (Homo sapiens, UniProt P61088); type: functional;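 further: Dose-response confirmation in a TR-FRET assay detecting UBC13-driven polyubiquitin chain formation, inhibition measured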
T1 sequence (P61088 whole entry): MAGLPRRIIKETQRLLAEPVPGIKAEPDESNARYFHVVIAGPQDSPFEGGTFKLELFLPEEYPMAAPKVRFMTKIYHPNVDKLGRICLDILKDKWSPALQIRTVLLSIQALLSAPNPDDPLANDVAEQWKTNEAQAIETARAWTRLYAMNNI

[7] = target: T2, Leucine aminopeptidase (Plasmodium falciparum 3D7, UniProt Q8IL11); assay: P. falciparum M17LAP inhibitors, primary screen, biochemical, fluorogenic H-Leu-NHMec substrate, 1536-well (AID 1619); type: functional
T2 sequence (Q8IL11 whole entry): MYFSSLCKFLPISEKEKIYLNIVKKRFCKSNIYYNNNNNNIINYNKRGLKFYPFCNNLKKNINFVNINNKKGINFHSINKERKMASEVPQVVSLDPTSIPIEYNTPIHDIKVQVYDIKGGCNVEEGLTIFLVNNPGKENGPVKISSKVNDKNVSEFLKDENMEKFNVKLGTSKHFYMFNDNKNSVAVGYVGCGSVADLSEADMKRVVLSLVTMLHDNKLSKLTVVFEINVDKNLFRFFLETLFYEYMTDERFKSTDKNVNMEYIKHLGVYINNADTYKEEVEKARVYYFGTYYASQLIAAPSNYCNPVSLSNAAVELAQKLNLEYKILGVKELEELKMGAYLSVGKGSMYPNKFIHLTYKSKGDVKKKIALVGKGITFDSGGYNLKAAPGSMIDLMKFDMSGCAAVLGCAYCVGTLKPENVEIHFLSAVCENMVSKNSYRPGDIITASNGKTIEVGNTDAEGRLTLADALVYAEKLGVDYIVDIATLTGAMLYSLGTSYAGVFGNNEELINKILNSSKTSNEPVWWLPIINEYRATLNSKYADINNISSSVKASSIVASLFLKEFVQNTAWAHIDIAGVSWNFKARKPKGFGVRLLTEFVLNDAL

[8] = target: T3, Corticotropin-releasing factor receptor 2/Corticotropin-releasing factor-binding protein (Homo sapiens, UniProt P24387+Q13324); assay: Dose Response confirmation of uHTS hits for small molecule antagonists of the CRF-binding protein and CRF-R2 receptor complex.; type: functional; details: read-out: IC50_Mean
T3 sequence (Q13324 whole entry): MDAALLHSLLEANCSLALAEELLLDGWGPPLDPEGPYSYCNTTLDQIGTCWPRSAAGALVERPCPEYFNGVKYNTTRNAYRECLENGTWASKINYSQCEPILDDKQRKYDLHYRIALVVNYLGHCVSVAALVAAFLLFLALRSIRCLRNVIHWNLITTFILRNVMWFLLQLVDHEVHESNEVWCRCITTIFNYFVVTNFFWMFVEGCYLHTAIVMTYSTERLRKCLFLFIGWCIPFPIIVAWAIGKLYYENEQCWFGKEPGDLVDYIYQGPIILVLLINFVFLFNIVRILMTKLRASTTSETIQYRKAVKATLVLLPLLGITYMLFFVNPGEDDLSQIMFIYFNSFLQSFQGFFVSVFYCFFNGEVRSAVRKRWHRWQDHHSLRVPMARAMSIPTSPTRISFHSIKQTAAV
T3 sequence (P24387 whole entry): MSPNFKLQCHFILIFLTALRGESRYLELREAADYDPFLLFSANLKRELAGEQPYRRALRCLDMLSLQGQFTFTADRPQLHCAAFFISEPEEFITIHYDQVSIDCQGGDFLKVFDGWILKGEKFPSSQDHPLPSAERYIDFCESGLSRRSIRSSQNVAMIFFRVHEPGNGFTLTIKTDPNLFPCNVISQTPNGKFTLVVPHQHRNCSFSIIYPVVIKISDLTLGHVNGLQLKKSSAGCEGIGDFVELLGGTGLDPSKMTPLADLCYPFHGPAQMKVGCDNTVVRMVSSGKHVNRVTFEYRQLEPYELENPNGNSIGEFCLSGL

[9] = target: T3, Corticotropin-releasing factor receptor 2/Corticotropin-releasing factor-binding protein; assay: activators of CRF receptor 2 with binding protein – uHTS hits, confirmation (AID 602473); type: functional; details: read-out: EC50_Mean
[10] = target: T4, Protein skinhead-1 (Caenorhabditis elegans, UniProt P34707); type: functional
T4 sequence (P34707 whole entry): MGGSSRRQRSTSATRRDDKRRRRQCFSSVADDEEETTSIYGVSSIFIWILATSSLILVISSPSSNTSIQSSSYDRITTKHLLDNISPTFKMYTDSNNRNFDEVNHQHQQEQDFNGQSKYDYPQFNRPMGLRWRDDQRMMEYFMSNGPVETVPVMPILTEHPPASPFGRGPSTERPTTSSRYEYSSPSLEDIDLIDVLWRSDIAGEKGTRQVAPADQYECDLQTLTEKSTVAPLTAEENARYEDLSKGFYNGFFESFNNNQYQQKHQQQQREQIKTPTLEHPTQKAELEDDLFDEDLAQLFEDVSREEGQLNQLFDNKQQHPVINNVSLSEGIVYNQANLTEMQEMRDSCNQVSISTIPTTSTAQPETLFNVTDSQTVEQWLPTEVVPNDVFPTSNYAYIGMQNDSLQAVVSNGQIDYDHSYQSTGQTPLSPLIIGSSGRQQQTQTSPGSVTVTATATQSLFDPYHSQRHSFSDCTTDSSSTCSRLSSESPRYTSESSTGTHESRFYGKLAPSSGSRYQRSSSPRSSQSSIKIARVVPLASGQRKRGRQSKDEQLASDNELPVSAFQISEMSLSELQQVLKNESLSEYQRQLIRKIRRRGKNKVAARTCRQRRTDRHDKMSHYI

Sequence of Large T antigen (P03070 whole entry): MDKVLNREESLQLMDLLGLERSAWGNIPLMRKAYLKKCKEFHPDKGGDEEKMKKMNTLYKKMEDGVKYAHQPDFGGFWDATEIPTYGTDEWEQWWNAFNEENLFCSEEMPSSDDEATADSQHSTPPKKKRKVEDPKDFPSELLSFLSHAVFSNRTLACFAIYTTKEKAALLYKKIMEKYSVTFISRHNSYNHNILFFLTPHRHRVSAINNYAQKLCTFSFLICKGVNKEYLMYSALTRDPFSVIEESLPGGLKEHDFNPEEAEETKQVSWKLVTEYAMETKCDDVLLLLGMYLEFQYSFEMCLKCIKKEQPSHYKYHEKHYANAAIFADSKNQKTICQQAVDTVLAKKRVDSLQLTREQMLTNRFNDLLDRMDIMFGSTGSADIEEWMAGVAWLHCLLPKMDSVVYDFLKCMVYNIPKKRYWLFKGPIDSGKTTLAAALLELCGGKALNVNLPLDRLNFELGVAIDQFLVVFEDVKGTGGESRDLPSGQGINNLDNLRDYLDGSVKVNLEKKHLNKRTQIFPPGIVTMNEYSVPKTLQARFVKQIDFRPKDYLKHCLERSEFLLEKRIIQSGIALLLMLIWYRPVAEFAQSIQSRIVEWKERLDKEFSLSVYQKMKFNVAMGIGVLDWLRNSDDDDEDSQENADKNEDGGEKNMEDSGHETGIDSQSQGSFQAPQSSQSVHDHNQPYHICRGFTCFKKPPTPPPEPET

For COc1ccc2c3c([nH]c2c1)[C@H](CO)N(Cc1ccccc1Cl)CC31CN(C(C)=O)C1, which AC50 [1] is on record?
The AC50 was 5.9 µM (active).

Which AC50 [1] does the source give for CCCc1cn([C@H]2C[C@@H]3O[C@@H](CO)CC[C@@H]3O[C@@H]2CCc2ccc(-c3ccc(OC)cc3)cc2)nn1 here?
The AC50 was 6.63 µM (active).

With O=C(Cc1nnc(O)c2ccccc12)OCc1c(Cl)cccc1Cl as the compound, how does the IC50 [2] read?
The IC50 was 8 µM (active).

With CCc1ccc(/N=C\C23c4ccccc4C(c4ccccc42)C2C(=O)N(c4ccc(OC)cc4)C(=O)C23)cc1 (stereo unspecified) as the compound, how does the CC50 [3] read?
Its CC50 is > 40 µM (active).

With CCc1cc(/C(Cc2ccccn2)=N\Nc2ccccc2)c(O)cc1O as the compound, how does the CC50 [3] read?
Its CC50 is > 40 µM (active).

With Oc1cc2c(cc1O)[C@H]1c3ccccc3CN[C@@H]1CC2 as the compound, how does the IC50 [4] read?
The IC50 was 80 µM (active).

With COc1cc(C(CCN2CCCCC2)c2c(OC)cc(OC)c3c(-c4ccccc4)cc(=O)oc23)cc(OC)c1OC (stereo unspecified) as the compound, how does the CC50 [5] read?
The CC50 was > 25 µM (active).

What about the IC50 [6] of the same compound?
The IC50 was > 20 µM (inactive).

Which results are given for O=C(CSc1ccccc1)NN1C(=O)c2ccccc2C1=O?
IC50 [7]: 54.4 µM (active); IC50 [8]: > 47.1 µM (inactive); EC50 [9]: > 53 µM (inactive)

For c1ccc2c(c1)CCN(c1nc(CN3CCOCC3)nc3sc4c(c13)CCCC4)C2, which CC50 [3] is on record?
Its CC50 is > 40 µM (active).

With COc1cc(C=C(C(C)=O)C(C)=O)ccc1O as the compound, how does the IC50 [4] read?
Its IC50 is 8.18 µM (active).

Which IC50 [4] does the source give for CC1=NN(c2ccccc2)C(=O)/C1=C/c1ccc(-c2ccc(C)c(C(=O)O)c2)o1 here?
Its IC50 is 35 µM (active).

With O=C1Cc2ccccc2Sc2ccc(O)cc21 as the compound, how does the IC50 [6] read?
The IC50 was > 20 µM (inactive).

And the EC50 [9]?
The EC50 was > 53 µM (inactive).

With CC(=O)/C(C#N)=C1\NC(=O)C(Cc2ccc(C)c(C)c2)S1 (stereo unspecified) as the compound, how does the IC50 [2] read?
Its IC50 is 5.04 µM (active).

And the CC50 [5]?
Its CC50 is > 25 µM (active).

With N#CC1=C(N)N(c2ccc(F)cc2)C2=C(C1c1ccc(O)cc1)S(=O)(=O)CC2 (stereo unspecified) as the compound, how does the IC50 [10] read?
Its IC50 is > 100 µM (inactive).

Which IC50 [7] does the source give for Cc1ccc(NC(=O)CSc2nnc[nH]2)cc1 here?
The IC50 was 34 µM (active).

For Nc1ccc(OCCCc2c(N)nc(N)nc2N)cc1, which IC50 [4] is on record?
Its IC50 is 7.73 µM (active).

What about the IC50 [6] of the same compound?
The IC50 was > 20 µM (inactive).

Which IC50 [10] does the source give for N#C/C(=C\c1ccc(Cl)cc1Cl)c1n[nH]c(Cn2cncn2)n1 here?
Its IC50 is > 100 µM (inactive).

For Cc1c(/C=N/NC(=O)c2cccs2)c2ccccc2n1Cc1ccccc1Cl, which IC50 [2] is on record?
The IC50 was > 25 µM (active).

What about the CC50 [5] of the same compound?
Its CC50 is > 25 µM (active).

Which IC50 [4] does the source give for O=C(NCc1ccco1)C1CC(=O)N(c2ccc(O)cc2)C1 (stereo unspecified) here?
The IC50 was 19.8 µM (active).
